Experimental data taken from the NIST ThermoML archive (doi:10.1021/je060271a).
± gives the expanded uncertainty stated by the source.

Details: 343.15 K, Liquid, Vibrating tube method

CCCCC(=O)OCC(COC(=O)CCCC)(COC(=O)CCCC)COC(=O)CCCC [pentaerythritol tetrapentanoate]
Details | mass density [kg/m3]
5413.1 kPa | 982.8 ± 1.2
5435 kPa | 982.7 ± 1.2
5461.9 kPa | 982.8 ± 1.2
5505.6 kPa | 982.8 ± 1.2
5528.3 kPa | 982.7 ± 1.2
5555.3 kPa | 982.9 ± 1.2
5578.3 kPa | 982.9 ± 1.2
5601.1 kPa | 982.8 ± 1.2
5652.8 kPa | 983 ± 1.2
6775.7 kPa | 983.7 ± 1.2
6868.5 kPa | 983.8 ± 1.2
7157.9 kPa | 984.1 ± 1.2
7189.4 kPa | 984.1 ± 1.2
7222 kPa | 984.1 ± 1.2
7362.2 kPa | 984.3 ± 1.2
7507.8 kPa | 984.3 ± 1.2
7543.3 kPa | 984.3 ± 1.2
7586.1 kPa | 984.4 ± 1.2
7622 kPa | 984.5 ± 1.2
7658.5 kPa | 984.4 ± 1.2
7695.9 kPa | 984.5 ± 1.2
7740.8 kPa | 984.5 ± 1.2
7779.3 kPa | 984.5 ± 1.2
7819 kPa | 984.5 ± 1.2
7858.9 kPa | 984.6 ± 1.2
7901.3 kPa | 984.7 ± 1.2
7933.4 kPa | 984.7 ± 1.2
7965.2 kPa | 984.7 ± 1.2
7997.4 kPa | 984.8 ± 1.2
8035.4 kPa | 984.7 ± 1.2
8067.7 kPa | 984.8 ± 1.2
8100.4 kPa | 984.6 ± 1.2
8139.1 kPa | 984.8 ± 1.2
8172.2 kPa | 984.9 ± 1.2
8205.9 kPa | 984.8 ± 1.2
8240 kPa | 984.8 ± 1.2
8280.4 kPa | 985 ± 1.2
8314.6 kPa | 984.8 ± 1.2
8349.6 kPa | 985 ± 1.2
8390.6 kPa | 985.1 ± 1.2
8425.6 kPa | 985 ± 1.2
8461.4 kPa | 985 ± 1.2
8504.7 kPa | 985.1 ± 1.2
8540.9 kPa | 985 ± 1.2
8577.6 kPa | 985.2 ± 1.2
8620.4 kPa | 985.2 ± 1.2
8653.7 kPa | 985.2 ± 1.2
8686.4 kPa | 985.2 ± 1.2
8725.9 kPa | 985.3 ± 1.2
8759 kPa | 985.2 ± 1.2
8793.5 kPa | 985.3 ± 1.2
8834.4 kPa | 985.3 ± 1.2
8868.3 kPa | 985.2 ± 1.2
8902.8 kPa | 985.3 ± 1.2
8937.8 kPa | 985.4 ± 1.2
8979.2 kPa | 985.4 ± 1.2
9014.2 kPa | 985.4 ± 1.2
9057.6 kPa | 985.5 ± 1.2
9093 kPa | 985.5 ± 1.2
9128.9 kPa | 985.5 ± 1.2
9165.6 kPa | 985.6 ± 1.2
9210.7 kPa | 985.6 ± 1.2
9247.8 kPa | 985.6 ± 1.2
9284.8 kPa | 985.6 ± 1.2
9330.2 kPa | 985.6 ± 1.2
9369.1 kPa | 985.6 ± 1.2
9408.2 kPa | 985.8 ± 1.2
9447.9 kPa | 985.6 ± 1.2
9495.3 kPa | 985.9 ± 1.2
9536.5 kPa | 985.8 ± 1.2
9579.2 kPa | 985.9 ± 1.2
9627.1 kPa | 985.8 ± 1.2
9659.1 kPa | 985.9 ± 1.2
9689.8 kPa | 986 ± 1.2
9720.2 kPa | 986 ± 1.2
9749.7 kPa | 986 ± 1.2
9785.3 kPa | 986 ± 1.2
9815.5 kPa | 986.1 ± 1.2
9845.4 kPa | 986.1 ± 1.2
9881.3 kPa | 986.2 ± 1.2
9911.4 kPa | 986.2 ± 1.2
9942.4 kPa | 986.2 ± 1.2
9979.5 kPa | 986.2 ± 1.2
10011 kPa | 986.2 ± 1.2
10043 kPa | 986.1 ± 1.2
10082 kPa | 986.4 ± 1.2
10117 kPa | 986.1 ± 1.2
10149 kPa | 986.3 ± 1.2
10181 kPa | 986.3 ± 1.2
10213 kPa | 986.3 ± 1.2
10252 kPa | 986.3 ± 1.2
10284 kPa | 986.3 ± 1.2
10318 kPa | 986.4 ± 1.2
10358 kPa | 986.4 ± 1.2
10391 kPa | 986.4 ± 1.2
10425 kPa | 986.5 ± 1.2
10465 kPa | 986.6 ± 1.2
10500 kPa | 986.5 ± 1.2
10535 kPa | 986.6 ± 1.2
10577 kPa | 986.5 ± 1.2
10612 kPa | 986.6 ± 1.2
10647 kPa | 986.6 ± 1.2
10690 kPa | 986.5 ± 1.2
10726 kPa | 986.8 ± 1.2
10762 kPa | 986.7 ± 1.2
10806 kPa | 986.8 ± 1.2
10842 kPa | 986.8 ± 1.2
10879 kPa | 986.8 ± 1.2
10923 kPa | 986.9 ± 1.2
10960 kPa | 986.9 ± 1.2
10999 kPa | 986.9 ± 1.2
11045 kPa | 986.9 ± 1.2
11084 kPa | 987 ± 1.2
11122 kPa | 987.1 ± 1.2
11162 kPa | 986.9 ± 1.2
11209 kPa | 987 ± 1.2
11248 kPa | 987.2 ± 1.2
11296 kPa | 987.1 ± 1.2
11336 kPa | 987.2 ± 1.2
11377 kPa | 987.2 ± 1.2
11417 kPa | 987.2 ± 1.2
11467 kPa | 987.3 ± 1.2
11508 kPa | 987.3 ± 1.2
11551 kPa | 987.4 ± 1.2
11602 kPa | 987.3 ± 1.2
11645 kPa | 987.3 ± 1.2
11689 kPa | 987.4 ± 1.2
11740 kPa | 987.4 ± 1.2
11784 kPa | 987.5 ± 1.2
11828 kPa | 987.4 ± 1.2
11881 kPa | 987.6 ± 1.2
11926 kPa | 987.6 ± 1.2
11972 kPa | 987.7 ± 1.2
12028 kPa | 987.6 ± 1.2
12076 kPa | 987.7 ± 1.2
12126 kPa | 987.7 ± 1.2
12187 kPa | 987.8 ± 1.2
12237 kPa | 987.9 ± 1.2
12270 kPa | 988 ± 1.2
12298 kPa | 987.8 ± 1.2
12322 kPa | 987.9 ± 1.2
12346 kPa | 987.8 ± 1.2
12374 kPa | 988 ± 1.2
12398 kPa | 987.9 ± 1.2
12423 kPa | 988 ± 1.2
12452 kPa | 987.9 ± 1.2
12476 kPa | 988.1 ± 1.2
12501 kPa | 988.1 ± 1.2
12530 kPa | 988 ± 1.2
12555 kPa | 988 ± 1.2
12580 kPa | 988 ± 1.2
12610 kPa | 988 ± 1.2
12636 kPa | 988 ± 1.2
12660 kPa | 988.1 ± 1.2
12691 kPa | 988.1 ± 1.2
12717 kPa | 988.2 ± 1.2
12742 kPa | 988.1 ± 1.2
12773 kPa | 988.2 ± 1.2
12799 kPa | 988.2 ± 1.2
12824 kPa | 988.3 ± 1.2
12856 kPa | 988.3 ± 1.2
